Measurements from patent US10253035B2 (priority 2016, dated 2019).
“Also recorded” adds a separate entry of the source. Where two headings read alike, the source gives them in different places.

How the values were obtained:
Eis_Mtb [1] = molecular target: T1, Eis_Mtb (Mycobacterium tuberculosis, UniProt P9WFK7); format: biochemical
Eis_Mtb [2] = molecular target: T1, Eis_Mtb; assay: biochemical; format: biochemical
Mtb H37Rv = format: cell-based
AAC(2′)-Ic = AAC(2′)-Ic (Mycobacterium tuberculosis, UniProt P9WQG9); assay: biochemical; parameters: species or system Mtb
AAC(6′)-Ie/APH(2″)-Ia = AAC(6′)-Ie/APH(2″)-Ia (Staphylococcus aureus, UniProt P0A0C1); assay: Selectivity: KAN acetylation by AAC(6′)-Ie/APH(2″)-Ia; format: biochemical
AAC(3)-IV = assay: Selectivity: KAN acetylation by AAC(3)-IV; format: biochemical, E. coli; conditions: for inhibition of KAN acetylation by AAC(3)-IV (in words): concentrations as high as 200 μM
[3] = test system: A549, HEK-293, and J774A.1 cells; conditions: KAN alone at sub-IC50 concentrations (FIG. 9)
[4] = activity of KAN against Mtb H37Rv with compound at concentration tested (100x IC50 or 100 μM), Example 1, two experiments
[5] = KAN MIC for H37Rv Mtb in the presence of compound at the specified concentration, Example 4
[6] = concentrations as high as 200 μM

AAC(6′)-Ie/APH(2″)-Ia, sequence (P0A0C1 whole entry): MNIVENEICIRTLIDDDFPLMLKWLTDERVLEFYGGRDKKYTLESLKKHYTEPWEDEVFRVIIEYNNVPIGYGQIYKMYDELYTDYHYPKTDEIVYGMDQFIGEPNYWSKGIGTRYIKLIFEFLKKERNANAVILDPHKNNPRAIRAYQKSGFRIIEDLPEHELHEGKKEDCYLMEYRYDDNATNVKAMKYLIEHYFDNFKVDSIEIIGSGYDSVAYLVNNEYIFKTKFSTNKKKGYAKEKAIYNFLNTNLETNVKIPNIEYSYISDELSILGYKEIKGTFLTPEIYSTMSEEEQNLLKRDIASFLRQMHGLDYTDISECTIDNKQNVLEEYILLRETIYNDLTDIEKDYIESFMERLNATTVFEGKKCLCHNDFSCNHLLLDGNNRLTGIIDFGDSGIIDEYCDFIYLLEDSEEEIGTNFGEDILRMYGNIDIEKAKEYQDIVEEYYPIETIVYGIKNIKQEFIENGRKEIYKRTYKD
T1 sequence (P9WFK7 2-402 limits assumed): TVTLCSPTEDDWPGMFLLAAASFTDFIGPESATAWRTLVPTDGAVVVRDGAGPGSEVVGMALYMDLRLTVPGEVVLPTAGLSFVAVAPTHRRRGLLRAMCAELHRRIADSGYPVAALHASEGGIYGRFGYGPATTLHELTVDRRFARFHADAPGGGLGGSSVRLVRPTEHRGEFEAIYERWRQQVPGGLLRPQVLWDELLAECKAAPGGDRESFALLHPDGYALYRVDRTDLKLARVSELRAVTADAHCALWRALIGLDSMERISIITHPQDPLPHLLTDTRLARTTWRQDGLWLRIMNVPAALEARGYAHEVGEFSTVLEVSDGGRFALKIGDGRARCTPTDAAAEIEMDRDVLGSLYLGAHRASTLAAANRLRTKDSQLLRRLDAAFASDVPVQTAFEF
AAC(2′)-Ic, sequence (P9WQG9 whole entry): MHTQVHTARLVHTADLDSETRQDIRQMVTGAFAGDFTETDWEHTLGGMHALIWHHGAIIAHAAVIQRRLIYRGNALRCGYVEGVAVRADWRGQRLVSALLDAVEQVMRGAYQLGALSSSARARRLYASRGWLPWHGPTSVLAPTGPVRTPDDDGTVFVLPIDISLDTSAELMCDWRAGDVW

## Cc1cc(NS(=O)(=O)c2ccc3[nH]c(=O)c(=O)[nH]c3c2)ccc1Br [Compound 1]
Eis_Mtb [1]
  Eis inhibition in the HTS (in words): modest Eis inhibition; also recorded: did not display significant Eis inhibition

## CCC(=O)Cn1c(C(=O)OC)cc2occc21 [Compound 1l]
Eis_Mtb [2]
  IC50: > 200000 nM

## COC(=O)c1cc2occc2n1CC(=O)C(C)(C)C [Compound 1m]
Mtb H37Rv; [4]
  H37Rv MICKAN: ≤1.25 µg/mL
Eis_Mtb [2]; read-out: IC50
  IC50: > 200000 nM

## CCC(=O)CN1C(=O)C2(OCCO2)c2ccccc21 [Compound 2l]
Mtb H37Rv; [4]
  H37Rv MICKAN: ≤1.25 µg/mL
Eis_Mtb [2]; read-out: IC50
  IC50: > 200000 nM

## O=C(CN1C(=O)C2(OCCO2)c2ccccc21)c1cccc([N+](=O)[O-])c1 [Compound 2n]
Eis_Mtb [2]; read-out: IC50
  IC50: 1200 ± 400 nM

## O=c1[nH]c2ccc(S(=O)(=O)Nc3ccc(Cl)c(C(F)(F)F)c3)cc2[nH]c1=O [Compound 3]
Eis_Mtb [1]
  Eis inhibition in the HTS (in words): modest Eis inhibition

## O=C(C[N+]1=C(c2ccc(F)c(F)c2)c2cccn2CC1)c1cccc(Cl)c1 [Compound 3d]
Eis_Mtb [2]; read-out: IC50
  IC50: 43 ± 6 nM

## O=C(C[N+]1=C(c2ccc(F)c(F)c2)c2cccn2CC1)c1ccc(F)cc1 [Compound 3h]
Eis_Mtb [2]; read-out: IC50
  IC50: 110 ± 30 nM

## CCN(CC)CCCNC1=NS(=O)(=O)C(c2ccc(C)c(C)c2)=C1C [Compound 3i]
Mtb H37Rv; [5]
  H37Rv MICKAN: 0.625 µg/mL

## Cc1ccc(C(=O)C[N+]2=C(c3ccc(F)c(F)c3)c3cccn3CC2)cc1 [Compound 3k]
Eis_Mtb [2]; read-out: IC50
  IC50: 110 ± 30 nM

## CC1=C(c2ccc(F)cc2)S(=O)(=O)N=C1NCCCN1CCCCC1 [Compound 6b]
Mtb H37Rv; [5]
  H37Rv MICKAN: 0.625 µg/mL

## CC1=C(c2ccc(F)cc2)S(=O)(=O)N=C1NCCCN1CCCCC1C (centres unmarked) [Compound 7b]
Mtb H37Rv; [5]
  H37Rv MICKAN: 0.625 µg/mL

## CN1C(=O)C2(OCCO2)c2ccccc21 [Compound 8b]
Eis_Mtb [1]
  Eis inhibition in the HTS (in words): no Eis_Mtb inhibitory activity

## CC1=C(c2ccc(Cl)cc2)S(=O)(=O)N=C1NCCCN1CCc2ccccc2C1 [Compound 11c]
Mtb H37Rv; [5]
  H37Rv MICKAN: 0.625 µg/mL

## CC1=C(c2ccccc2)S(=O)(=O)N=C1NCCCN1CCOCC1 [Compound 13a]
Mtb H37Rv; [5]
  H37Rv MICKAN: 0.625 µg/mL

## CC1=C(c2ccc(C)cc2)S(=O)(=O)N=C1NCCCN1CCOCC1 [Compound 13e]
Mtb H37Rv; [5]
  H37Rv MICKAN: 0.625 µg/mL

## CC1=C(c2cccc(Cl)c2)S(=O)(=O)N=C1NCCCN1CCOCC1 [Compound 13g]
Mtb H37Rv; [5]
  H37Rv MICKAN: 0.625 µg/mL

## CC1=C(c2ccc(C)c(C)c2)S(=O)(=O)N=C1NCCCN1CCOCC1 [Compound 13i]
Mtb H37Rv; [5]
  H37Rv MICKAN: 0.625 µg/mL

## COc1ccc(N(C)S(=O)(=O)c2ccc3[nH]c(=O)c(=O)[nH]c3c2)cc1 [Compound 14]
Eis_Mtb [1]
  Eis inhibition in the HTS (in words): inactive

## CC1=C(c2ccc(Cl)cc2)S(=O)(=O)N=C1NCCCN1CCN(C)CC1 [Compound 14c]
Mtb H37Rv; [5]
  H37Rv MICKAN: 0.625 µg/mL

## Cc1ccc(N(C)S(=O)(=O)c2ccc3[nH]c(=O)c(=O)[nH]c3c2)cc1 [Compound 15]
Eis_Mtb [1]
  Eis inhibition in the HTS (in words): inactive

## CCN1CCN(CCCNC2=NS(=O)(=O)C(c3ccc(C)cc3)=C2C)CC1 [Compound 15e]
Mtb H37Rv; [5]
  H37Rv MICKAN: 0.625 to 1.25 µg/mL

## CCN1CCN(CCCNC2=NS(=O)(=O)C(c3ccc(C(C)C)cc3)=C2C)CC1 [Compound 15f]
Mtb H37Rv; [5]
  H37Rv MICKAN: 0.625 to 1.25 µg/mL

## CC1=C(c2ccc(C)c(C)c2)S(=O)(=O)N=C1NCCCN1CCN(C2CCCCC2)CC1 [Compound 17i]
Mtb H37Rv; [5]
  H37Rv MICKAN: 0.625 to 1.25 µg/mL

## CN(c1ccc(Br)cc1)S(=O)(=O)c1ccc2[nH]c(=O)c(=O)[nH]c2c1 [Compound 29]
Eis_Mtb [1]; single-point HTS of library compounds
  Eis inhibition in the HTS (in words): potently inhibited Eis activity

## CC1=C(c2ccccc2)S(=O)(=O)N=C1NCCN1CCCCC1 [Compound 33a]
Mtb H37Rv; [5]
  H37Rv MICKAN: 0.625 µg/mL

## CC1=C(c2ccc(C)cc2)S(=O)(=O)N=C1NCCN1CCOCC1 [Compound 35e]
Mtb H37Rv; [5]
  H37Rv MICKAN: 0.625 µg/mL

## CC1=C(c2cccc(Cl)c2)S(=O)(=O)N=C1NCCN1CCOCC1 [Compound 35g]
Mtb H37Rv; [5]
  H37Rv MICKAN: 0.625 µg/mL

## CC1=C(c2cccc(Br)c2)S(=O)(=O)N=C1NCCN1CCOCC1 [Compound 35h]
Mtb H37Rv; [5]
  H37Rv MICKAN: 0.625 µg/mL

## CC1=C(c2ccc(C)c(C)c2)S(=O)(=O)N=C1NCCN1CCOCC1 [Compound 35i]
Mtb H37Rv; [5]
  H37Rv MICKAN: 0.625 µg/mL

## COc1ccc(C2=C(C)C(NCCN3CCN(C)CC3)=NS2(=O)=O)cc1 [Compound 36d]
Mtb H37Rv; [5]
  H37Rv MICKAN: 0.625 µg/mL

## CCN1CCN(CCNC2=NS(=O)(=O)C(c3ccc(F)cc3)=C2C)CC1 [Compound 37b]
Mtb H37Rv; [5]
  H37Rv MICKAN: 0.625 µg/mL

## CCN1CCN(CCNC2=NS(=O)(=O)C(c3ccc(OC)cc3)=C2C)CC1 [Compound 37d]
Mtb H37Rv; [5]
  H37Rv MICKAN: 0.625 to 1.25 µg/mL

## COc1cccc(N(C)S(=O)(=O)c2ccc3[nH]c(=O)c(=O)[nH]c3c2)c1 [Compound 39]
AAC(2′)-Ic; read-out: inhibition of the AAC(2′)-Ic activity
  inhibition at 200 µM: 15%
AAC(6′)-Ie/APH(2″)-Ia
  inhibition of KAN acetylation by AAC(6′)-Ie/APH(2″)-Ia (in words): did not inhibit KAN acetylation
AAC(3)-IV
  inhibition of KAN acetylation by AAC(3)-IV (in words): did not inhibit KAN acetylation

## CN(c1ccc2ccccc2c1)S(=O)(=O)c1ccc2[nH]c(=O)c(=O)[nH]c2c1 [Compound 46]
AAC(2′)-Ic; [6]
  inhibition of KAN acetylation by AAC(2′)-Ic (in words): did not inhibit KAN acetylation
AAC(6′)-Ie/APH(2″)-Ia; [6]
  inhibition of KAN acetylation by AAC(6′)-Ie/APH(2″)-Ia (in words): did not inhibit KAN acetylation
AAC(3)-IV
  inhibition of KAN acetylation by AAC(3)-IV (in words): did not inhibit KAN acetylation

## CC1=C(c2ccc(F)cc2)S(=O)(=O)N=C1N1CCC(N2CCCCC2)CC1 [Compound 46b]
AAC(2′)-Ic
  inhibition of KAN acetylation by AAC(2′)-Ic (in words): no inhibition by either compound was observed
AAC(2′)-Ic; 200 µM
  % activity: 100%
Mtb H37Rv; [5]
  H37Rv MICKAN: 0.625 to 1.25 µg/mL
Eis_Mtb [2]; read-out: IC50
  IC50: 92 ± 21 nM
AAC(6′)-Ie/APH(2″)-Ia; acetylation activity of AAC(6′)-Ie/APH(2″)-Ia at 200 μM inhibitor relative to that without inhibitor
  % activity: 80%
AAC(6′)-Ie/APH(2″)-Ia; [6]
  inhibition of KAN acetylation by AAC(6′)-Ie/APH(2″)-Ia (in words): no inhibition by either compound was observed
AAC(3)-IV; AAC(3)-IV activity at 200 μM inhibitor relative to that without inhibitor
  % activity: 100%
AAC(3)-IV
  inhibition of KAN acetylation by AAC(3)-IV (in words): no inhibition by either compound was observed

## COc1cc(N(C)S(=O)(=O)c2ccc3[nH]c(=O)c(=O)[nH]c3c2)cc2ccccc12 [Compound 47]
Eis_Mtb [2]; dose-response assay
  inhibition of purified Eis (in words): loss of Eis inhibition

## CCCN1CCN(C2=NS(=O)(=O)C(c3ccc(C)c(C)c3)=C2C)CC1 [Compound 62i]
Mtb H37Rv; [5]
  H37Rv MICKAN: 0.625 µg/mL

## CC1=C(c2ccc(F)cc2)S(=O)(=O)N=C1NCc1ccccc1 [Compound 89b]
Mtb H37Rv; [5]
  H37Rv MICKAN: 1.25 µg/mL

## CC1=C(c2ccc(F)cc2)S(=O)(=O)N=C1NCc1ccccn1 [Compound 112b]
Mtb H37Rv; [5]
  H37Rv MICKAN: 0.625 µg/mL

## CC1=C(c2ccc(C)c(C)c2)S(=O)(=O)N=C1NCC(=O)NCc1ccc(C)o1 [Compound 116i]
Mtb H37Rv; [5]
  H37Rv MICKAN: 1.25 µg/mL

## NC[C@H]1O[C@H](O[C@H]2[C@H](O)[C@@H](O[C@H]3O[C@H](CO)[C@@H](O)[C@H](N)[C@H]3O)[C@H](N)C[C@@H]2N)[C@H](O)[C@@H](O)[C@@H]1O [KAN, kanamycin A]
[3]
  effect on cell growth (in words): promotes cell growth

## COC(=O)c1cc2occc2n1CC(=O)c1cccc(OC)c1 [if]
Eis_Mtb [2]
  IC50: > 200000 nM
